Reference: patent US10508086B2 (CANCER RESEARCH TECHNOLOGY LIMITED, priority 2014, dated 2019)

Tests used:
[1] = target: Human High specific Activity PARP1 (Homo sapiens (Human), UniProt P09874); assay: PARP1 in vitro selectivity assay (histone PARylation, luminescence); format: biochemical; conditions: read-out: PARP1 Biochem IC50
Protocol: PARP1 In vitro selectivity assays were conducted as a 10 ul reaction volume in a NUNC Maxisorp 384-well assay plate pre-coated in-house with Histones. 5 ul of Human High specific Activity PARP1 (Trevigen: 4668-100-01) was used at a final reaction concentration of 0.02 units/ml in 1×PARP Buffer (Trevigen: 4671-096-02) with 5 ul of 1×PARP cocktail, which is a mixture of 10×PARP Cocktail (Trevigen: 4671-096-03), 10× Activate DNA (Trevigen: 4671-096-06) and 20×PARP Buffer (as above). The reaction was incubated at room temperature for 60 minutes to allow histones on the coated plate to become PARylated. The wells were then washed with PBS/0.1% Triton X100. PARP1 activity was then detected by measuring the extent of PARylation. Firstly, 10 ul of Streptavidin-HRP (Trevigen: 4800-30-06), diluted 1 in 250 in 1×PARG Assay Buffer (Trevigen: 4680-096-02), was added to each well and incubated at room temperature for 60 minutes. Secondly, following another wash with PBS/0.1% Triton X100, Peroxy Glow Reagents A and B (Trevigen: 4675-096-01 and 4675-096-02) were mixed in equal quantities immediately before use and 100 ul was added to each well. Luminescence signal was then measured immediately.

PARG in HeLa cell line = PARG in HeLa cell line (Homo sapiens (Human), UniProt Q86W56); assay: PARG cell assay (nuclear PAR chains after MMS, immunofluorescence); format: cell-based; conditions: HeLa cells, MMS 50 μg/mL; read-out: PARG Cell IC50 Geomean
PARG in HeLa cell line, sequence (Q86W56 whole entry): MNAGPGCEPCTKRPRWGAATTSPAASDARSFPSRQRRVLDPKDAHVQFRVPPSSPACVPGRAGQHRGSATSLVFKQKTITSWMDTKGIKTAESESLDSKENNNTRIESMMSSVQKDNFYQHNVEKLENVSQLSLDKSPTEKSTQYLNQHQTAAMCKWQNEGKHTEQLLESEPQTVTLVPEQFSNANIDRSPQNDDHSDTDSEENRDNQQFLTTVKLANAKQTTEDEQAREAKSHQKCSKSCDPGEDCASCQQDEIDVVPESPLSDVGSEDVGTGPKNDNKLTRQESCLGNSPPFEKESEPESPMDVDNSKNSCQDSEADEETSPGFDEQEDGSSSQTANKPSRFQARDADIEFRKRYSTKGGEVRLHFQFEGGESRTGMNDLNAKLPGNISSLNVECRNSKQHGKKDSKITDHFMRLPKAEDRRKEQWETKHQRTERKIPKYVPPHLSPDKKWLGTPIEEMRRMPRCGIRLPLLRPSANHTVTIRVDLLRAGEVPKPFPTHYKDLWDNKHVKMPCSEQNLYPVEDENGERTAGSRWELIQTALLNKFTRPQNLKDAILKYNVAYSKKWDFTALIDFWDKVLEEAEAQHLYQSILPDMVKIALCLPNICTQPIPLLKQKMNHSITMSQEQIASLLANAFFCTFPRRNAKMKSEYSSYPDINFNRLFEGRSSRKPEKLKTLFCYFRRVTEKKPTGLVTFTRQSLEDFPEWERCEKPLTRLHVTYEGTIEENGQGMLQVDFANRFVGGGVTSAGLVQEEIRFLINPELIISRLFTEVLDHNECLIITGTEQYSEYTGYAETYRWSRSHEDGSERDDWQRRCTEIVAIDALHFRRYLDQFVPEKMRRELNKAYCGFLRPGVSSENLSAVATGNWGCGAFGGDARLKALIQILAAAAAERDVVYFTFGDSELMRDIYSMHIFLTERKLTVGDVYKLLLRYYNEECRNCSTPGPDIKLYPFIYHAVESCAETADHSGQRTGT
Outline: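 HeLa cells pre-dosed 1 h with compound (10-point dose response), then MMS 50 μg/mL for a further hour at 37 °C. Fixed cells immunostained with anti-PAR antibody plus Alexa Fluor 488 secondary and Hoechst. High-content imaging quantified nuclear PAR fluorescence intensity; inhibition maintains PAR chains.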

Human Full Length ARH3 = Human Full Length ARH3 (Homo sapiens (Human), UniProt Q9NX46); assay: ARH3 in vitro selectivity assay (TR-FRET); format: biochemical; conditions: read-out: ARH3 Biochem IC50
Human Full Length ARH3, sequence (Q9NX46 whole entry): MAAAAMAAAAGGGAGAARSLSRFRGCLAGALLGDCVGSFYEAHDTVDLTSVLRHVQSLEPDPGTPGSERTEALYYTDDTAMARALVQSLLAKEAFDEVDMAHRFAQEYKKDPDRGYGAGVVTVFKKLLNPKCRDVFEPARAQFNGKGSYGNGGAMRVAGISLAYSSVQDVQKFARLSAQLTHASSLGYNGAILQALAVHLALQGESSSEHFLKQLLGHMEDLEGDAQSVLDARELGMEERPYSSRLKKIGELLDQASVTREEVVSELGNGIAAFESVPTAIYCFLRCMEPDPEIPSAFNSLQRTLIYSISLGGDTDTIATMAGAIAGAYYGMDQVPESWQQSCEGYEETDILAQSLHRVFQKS
Protocol: ARH3 In vitro selectivity assays were conducted in a total volume of 15 ul in a standard 384 well format. 5 ul of Human Full Length ARH3 (Enzo Life Sciences: ALX-201-292), used at a final reaction concentration of 17.5 nM, was added to 5 ul of Ribosylated PARP substrate (also produced internally by Astra Zeneca) at final reaction concentration of 4.5 nM in assay buffer (50 mM Tris pH7.4, 0.1 mg/ml BSA, 3 mM EDTA, 0.4 mM EGTA, 1 mM DTT, 0.01% Tween 20, 50 mM KCl). The reaction was incubated at room temperature for 30 minutes and then 5 ul detection reagent was added. Detection Reagent consists of 42 nM MAb Anti-6HIS XL665 (CisBio: 61HISXLB) and 2.25 nM Streptavidin Europium Cryptate (CisBio: 610SAKLB), both at 3× working stock concentrations (final concentrations of 14 nM and 0.75 nM respectively), in a detection buffer of 50 mM Tris pH7.4, BSA at 0.1 mg/ml and KF at 100 mM. Following incubation at room temperature for 60 minutes in the dark, TR-FRET signal was measured at Ex 340 and Em 665 and Em 620. A ratio was calculated as Em665/EM620×104 for each well and used to calculate percent inhibition for test compounds.

Human Full Length PARG = Human Full Length PARG (Homo sapiens (Human), UniProt Q86W56); assay: PARG in vitro enzyme assay (TR-FRET); format: biochemical; conditions: read-out: PARG_EC50_ENZYME
Human Full Length PARG, sequence (Q86W56 whole entry): as the sequence (Q86W56 whole entry) above
Outline: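 Full-length human PARG ([…]) incubated with ribosylated PARP substrate (4.5 nM) for 10 min at room temperature in Tris pH 7.4 buffer with EDTA, EGTA, DTT, KCl. Detection by TR-FRET using anti-6HIS XL665 (14 nM final) and streptavidin europium cryptate (0.75 nM final) after 60 min; Em665/Em620 ratio converted to percent inhibition.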

Human High specific Activity PARP1, sequence (P09874 whole entry): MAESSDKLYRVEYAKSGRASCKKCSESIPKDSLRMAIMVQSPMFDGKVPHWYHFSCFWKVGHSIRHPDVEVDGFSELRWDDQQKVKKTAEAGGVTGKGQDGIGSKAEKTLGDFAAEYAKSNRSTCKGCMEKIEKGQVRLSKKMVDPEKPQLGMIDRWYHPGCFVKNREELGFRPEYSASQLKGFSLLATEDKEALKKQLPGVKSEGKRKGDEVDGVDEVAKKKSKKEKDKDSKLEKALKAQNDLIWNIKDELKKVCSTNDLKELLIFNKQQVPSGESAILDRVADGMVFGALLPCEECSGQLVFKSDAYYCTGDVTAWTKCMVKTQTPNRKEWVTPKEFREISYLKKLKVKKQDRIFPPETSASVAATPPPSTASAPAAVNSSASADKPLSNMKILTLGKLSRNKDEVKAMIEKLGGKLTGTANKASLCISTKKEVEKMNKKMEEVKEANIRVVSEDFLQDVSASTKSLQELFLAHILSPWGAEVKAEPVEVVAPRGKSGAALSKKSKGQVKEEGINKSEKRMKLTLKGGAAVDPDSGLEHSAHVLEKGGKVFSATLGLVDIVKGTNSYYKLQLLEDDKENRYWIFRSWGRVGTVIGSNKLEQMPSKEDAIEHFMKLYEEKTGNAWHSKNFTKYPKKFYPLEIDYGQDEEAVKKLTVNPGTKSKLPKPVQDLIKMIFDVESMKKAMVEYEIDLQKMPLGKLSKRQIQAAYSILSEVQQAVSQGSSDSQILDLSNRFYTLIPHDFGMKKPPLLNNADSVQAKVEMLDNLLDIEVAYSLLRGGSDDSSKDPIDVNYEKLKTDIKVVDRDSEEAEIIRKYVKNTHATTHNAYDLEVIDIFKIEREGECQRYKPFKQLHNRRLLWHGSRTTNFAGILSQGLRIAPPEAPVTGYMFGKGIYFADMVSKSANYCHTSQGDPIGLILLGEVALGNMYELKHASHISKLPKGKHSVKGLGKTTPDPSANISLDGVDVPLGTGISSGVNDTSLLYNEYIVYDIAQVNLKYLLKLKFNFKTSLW

IC50 [1]: > 150 µM
IC50 (PARG in HeLa cell line): 0.029 µM
IC50 (Human Full Length ARH3): > 150 µM
EC50 (Human Full Length PARG): 0.054 µM
Compound: CCn1c(=O)n(-c2nnc(C(F)F)s2)c2cc(S(=O)(=O)NC3(CF)CC3)c(F)cc21 [Example 208, 3-[5-(Difluoromethyl)-1,3,4-thiadiazol-2-yl]-1-ethyl-6-fluoro-N-[1-(fluoromethyl)cyclopropyl]-2-oxo-benzimidazole-5-sulfonamide]
